Test results from ChEMBL document CHEMBL3885881, “DrugMatrix”.

Species on record: Rattus norvegicus
Assay: DrugMatrix - Regimen: Daily Repeat
Type: toxicity, organism-based, Sprague-Dawley
Set-up: regimen Daily Repeat, gender Male, age 6-8 weeks
Settings: in vivo, po, route oral GAVAGE, vehicle 100 % WATER; for BASOPHIL / EOSINOPHIL / ERYTHROCYTE COUNT / HEMATOCRIT / HEMOGLOBIN / LEUKOCYTE COUNT / LYMPHOCYTE / MEAN CORPUSCULAR HEMOGLOBIN / MEAN CORPUSCULAR HEMOGLOBIN CONCENTRATION / MEAN CORPUSCULAR VOLUME / MONOCYTE / NEUTROPHIL / PLATELET COUNT: tissue Blood; for ALANINE AMINOTRANSFERASE / ALBUMIN / ALKALINE PHOSPHATASE / ASPARTATE AMINOTRANSFERASE / BLOOD UREA NITROGEN / CHLORIDE / CHOLESTEROL / CREATINE PHOSPHOKINASE / CREATININE / GLUCOSE / PHOSPHORUS / POTASSIUM / SODIUM / TOTAL BILIRUBIN / TOTAL PROTEIN: tissue Plasma
[1] = 0 mg/kg, 72 h, dose level Control, time 3 day
[2] = 0 mg/kg, 120 h, dose level Control, time 5 day
[3] = 8 mg/kg, 72 h, dose level Low, time 3 day
[4] = 8 mg/kg, 120 h, dose level Low, time 5 day
[5] = 29 mg/kg, 72 h, dose level High, time 3 day
[6] = 29 mg/kg, 120 h, dose level High, time 5 day

## CCN[C@@H](C)Cc1cccc(C(F)(F)F)c1 [DEXFENFLURAMINE]
[1]
  BASOPHIL: 0%
  EOSINOPHIL: 0.5%
  ERYTHROCYTE COUNT: 5.8 x10E6/uL
  HEMATOCRIT: 35.07%
  HEMOGLOBIN: 14.12 G/DL
  LEUKOCYTE COUNT: 13.7 x10E3/uL
  LYMPHOCYTE: 82.33%
  MEAN CORPUSCULAR HEMOGLOBIN: 24.38 pg
  MEAN CORPUSCULAR HEMOGLOBIN CONCENTRATION: 40.28 G/DL
  MEAN CORPUSCULAR VOLUME: 60.52 fL
  MONOCYTE: 2.67%
  NEUTROPHIL: 14.5%
  PLATELET COUNT: 911.5 x10E3/uL
  ALANINE AMINOTRANSFERASE: 36.83 u/L
  ALBUMIN: 3.75 G/DL
  ALKALINE PHOSPHATASE: 399.83 u/L
  ASPARTATE AMINOTRANSFERASE: 66 u/L
  BLOOD UREA NITROGEN: 14.67 mg/dL
  CHLORIDE: 101.67 MEQ/L
  CHOLESTEROL: 66.33 mg/dL
  CREATINE PHOSPHOKINASE: 139.5 u/L
  CREATININE: 0.92 mg/dL
  GLUCOSE: 175 mg/dL
  PHOSPHORUS: 11.42 mg/dL
  POTASSIUM: 7.03 MEQ/L
  SODIUM: 148.5 MEQ/L
  TOTAL BILIRUBIN: 1.13 mg/dL
  TOTAL PROTEIN: 6.87 G/DL
[2]
  BASOPHIL: 0%
  EOSINOPHIL: 0.2%
  ERYTHROCYTE COUNT: 6.02 x10E6/uL
  HEMATOCRIT: 36.48%
  HEMOGLOBIN: 14.38 G/DL
  LEUKOCYTE COUNT: 12.34 x10E3/uL
  LYMPHOCYTE: 83%
  MEAN CORPUSCULAR HEMOGLOBIN: 23.92 pg
  MEAN CORPUSCULAR HEMOGLOBIN CONCENTRATION: 39.44 G/DL
  MEAN CORPUSCULAR VOLUME: 60.66 fL
  MONOCYTE: 3%
  NEUTROPHIL: 13.8%
  PLATELET COUNT: 1190.6 x10E3/uL
  ALANINE AMINOTRANSFERASE: 43 u/L
  ALBUMIN: 3.73 G/DL
  ALKALINE PHOSPHATASE: 393 u/L
  ASPARTATE AMINOTRANSFERASE: 62.33 u/L
  BLOOD UREA NITROGEN: 16.33 mg/dL
  CHLORIDE: 101.67 MEQ/L
  CHOLESTEROL: 65.5 mg/dL
  CREATINE PHOSPHOKINASE: 130.67 u/L
  CREATININE: 0.58 mg/dL
  GLUCOSE: 180.67 mg/dL
  PHOSPHORUS: 11.28 mg/dL
  POTASSIUM: 7.05 MEQ/L
  SODIUM: 148.17 MEQ/L
  TOTAL BILIRUBIN: 0.72 mg/dL
  TOTAL PROTEIN: 6.83 G/DL
[3]
  BASOPHIL: 0%
  EOSINOPHIL: 0%
  ERYTHROCYTE COUNT: 5.97 x10E6/uL
  HEMATOCRIT: 35.8%
  HEMOGLOBIN: 14.33 G/DL
  LEUKOCYTE COUNT: 8.6 x10E3/uL
  LYMPHOCYTE: 86.33%
  MEAN CORPUSCULAR HEMOGLOBIN: 24.03 pg
  MEAN CORPUSCULAR HEMOGLOBIN CONCENTRATION: 40.07 G/DL
  MEAN CORPUSCULAR VOLUME: 60 fL
  MONOCYTE: 3.67%
  NEUTROPHIL: 10%
  PLATELET COUNT: 1151 x10E3/uL
  ALANINE AMINOTRANSFERASE: 34.67 u/L
  ALBUMIN: 3.8 G/DL
  ALKALINE PHOSPHATASE: 406.67 u/L
  ASPARTATE AMINOTRANSFERASE: 62.67 u/L
  BLOOD UREA NITROGEN: 16 mg/dL
  CHLORIDE: 100.33 MEQ/L
  CHOLESTEROL: 70 mg/dL
  CREATINE PHOSPHOKINASE: 167.33 u/L
  CREATININE: 0.77 mg/dL
  GLUCOSE: 174 mg/dL
  PHOSPHORUS: 11.97 mg/dL
  POTASSIUM: 6.93 MEQ/L
  SODIUM: 148.67 MEQ/L
  TOTAL BILIRUBIN: 0.67 mg/dL
  TOTAL PROTEIN: 6.7 G/DL
[4]
  BASOPHIL: 0%
  EOSINOPHIL: 0%
  ERYTHROCYTE COUNT: 6.17 x10E6/uL
  HEMATOCRIT: 36.97%
  HEMOGLOBIN: 14.47 G/DL
  LEUKOCYTE COUNT: 12.77 x10E3/uL
  LYMPHOCYTE: 91.67%
  MEAN CORPUSCULAR HEMOGLOBIN: 23.5 pg
  MEAN CORPUSCULAR HEMOGLOBIN CONCENTRATION: 39.13 G/DL
  MEAN CORPUSCULAR VOLUME: 60 fL
  MONOCYTE: 1.67%
  NEUTROPHIL: 6.67%
  PLATELET COUNT: 1202.33 x10E3/uL
  ALANINE AMINOTRANSFERASE: 37 u/L
  ALBUMIN: 3.83 G/DL
  ALKALINE PHOSPHATASE: 391.67 u/L
  ASPARTATE AMINOTRANSFERASE: 62.67 u/L
  BLOOD UREA NITROGEN: 14 mg/dL
  CHLORIDE: 102.67 MEQ/L
  CHOLESTEROL: 62.67 mg/dL
  CREATINE PHOSPHOKINASE: 107 u/L
  CREATININE: 0.6 mg/dL
  GLUCOSE: 196.67 mg/dL
  PHOSPHORUS: 12.6 mg/dL
  POTASSIUM: 7.37 MEQ/L
  SODIUM: 148.67 MEQ/L
  TOTAL BILIRUBIN: 0.53 mg/dL
  TOTAL PROTEIN: 7 G/DL
[5]
  BASOPHIL: 0%
  EOSINOPHIL: 0.33%
  ERYTHROCYTE COUNT: 6.47 x10E6/uL
  HEMATOCRIT: 37.87%
  HEMOGLOBIN: 15.5 G/DL
  LEUKOCYTE COUNT: 12.63 x10E3/uL
  LYMPHOCYTE: 88%
  MEAN CORPUSCULAR HEMOGLOBIN: 24.03 pg
  MEAN CORPUSCULAR HEMOGLOBIN CONCENTRATION: 41 G/DL
  MEAN CORPUSCULAR VOLUME: 58.6 fL
  MONOCYTE: 2%
  NEUTROPHIL: 9.67%
  PLATELET COUNT: 1385.67 x10E3/uL
  ALANINE AMINOTRANSFERASE: 27 u/L
  ALBUMIN: 3.7 G/DL
  ALKALINE PHOSPHATASE: 285.67 u/L
  ASPARTATE AMINOTRANSFERASE: 55.33 u/L
  BLOOD UREA NITROGEN: 13 mg/dL
  CHLORIDE: 102 MEQ/L
  CHOLESTEROL: 63.67 mg/dL
  CREATINE PHOSPHOKINASE: 119.67 u/L
  CREATININE: 0.7 mg/dL
  GLUCOSE: 160 mg/dL
  PHOSPHORUS: 10.57 mg/dL
  POTASSIUM: 6.47 MEQ/L
  SODIUM: 151 MEQ/L
  TOTAL BILIRUBIN: 0.47 mg/dL
  TOTAL PROTEIN: 6.57 G/DL
[6]
  BASOPHIL: 0%
  EOSINOPHIL: 0%
  ERYTHROCYTE COUNT: 6.71 x10E6/uL
  HEMATOCRIT: 38.87%
  HEMOGLOBIN: 15.1 G/DL
  LEUKOCYTE COUNT: 11.3 x10E3/uL
  LYMPHOCYTE: 92.67%
  MEAN CORPUSCULAR HEMOGLOBIN: 22.53 pg
  MEAN CORPUSCULAR HEMOGLOBIN CONCENTRATION: 38.9 G/DL
  MEAN CORPUSCULAR VOLUME: 58 fL
  MONOCYTE: 1.67%
  NEUTROPHIL: 5.67%
  PLATELET COUNT: 1314.33 x10E3/uL
  ALANINE AMINOTRANSFERASE: 33.67 u/L
  ALBUMIN: 3.67 G/DL
  ALKALINE PHOSPHATASE: 333.67 u/L
  ASPARTATE AMINOTRANSFERASE: 57.67 u/L
  BLOOD UREA NITROGEN: 15 mg/dL
  CHLORIDE: 101 MEQ/L
  CHOLESTEROL: 66.67 mg/dL
  CREATINE PHOSPHOKINASE: 104.67 u/L
  CREATININE: 0.6 mg/dL
  GLUCOSE: 197.33 mg/dL
  PHOSPHORUS: 12.47 mg/dL
  POTASSIUM: 6.47 MEQ/L
  SODIUM: 149.67 MEQ/L
  TOTAL BILIRUBIN: 0.33 mg/dL
  TOTAL PROTEIN: 6.57 G/DL
